Earlier results in patent publication US10035944B2, “Using synthetic acid compositions as alternatives to conventional acids in the oil and gas industry” (priority 2014, dated 2018).

Details: death in 2-3 minutes

## Cl [Hydrogen chloride gas, Hydrogen chloride]
  level at which death can occur: 1300-2000 ppm
